Article PMC8854719, “Phase 1A/1B dose-escalation and -expansion study to evaluate the safety, pharmacokinetics, food effects and antitumor activity of pamiparib in advanced solid tumours” (British Journal of Cancer, 2021)

Experiments:
[1] = tested on: poly(ADP-ribose [PAR]) formation in peripheral blood mononuclear cells (PBMCs); test: PAR inhibition in PBMCs (ELISA); assay type: in vivo; conditions: Homo sapiens, PBMC; sustained at doses of 10 mg BID or higher
Description: Pamiparib in plasma was measured using a validated liquid chromatography-tandem–mass spectrometry assay with a lower limit of quantification of 1.0 ng/mL. The collection schedule for blood samples used to assess the PK profile is presented in the Supplemental Appendix. Summary PK parameters, including area under the concentration-time curve from time 0 to 9 h (AUC0-9) or infinity (AUC0-inf), maximal plasma concentration (Cmax) and time to maximal plasma concentration (Tmax), were estimated. The pharmacodynamic (PD) activity of pamiparib was explored through the evaluation of poly(ADP-ribose [PAR]) formation in peripheral blood mononuclear cells (PBMCs) after pamiparib administration. The schedule for blood sample collection (PK and PBMCs) and additional assessment information for PAR levels in PBMCs and pharmacodynamic activity is presented in the Supplemental Appendix. Antitumor activity was assessed by radiographic imaging (computed tomography or magnetic resonance imaging) during screening, within 28 days of first pamiparib dose, every 6 weeks in the first 12 months and every 9 weeks thereafter.
Time-matched blood samples (PK and PBMCs) were obtained on Day 1 (predose and 4 hours postdose) and Day 17 (4 hours postdose) of Cycle 1. The PAR levels in PBMCs were measured by a validated ELISA assay using a commercial PARP pharmacodynamic assay kit (Trevigen, Gaithersburg, MD). […]

[2] = tested on: BCRP (breast cancer resistance protein); set-up: method as in PMID 32652442; conditions: cited from earlier work

Structure (SMILES): C[C@]12CCCN1CC1=NNC(=O)c3cc(F)cc4[nH]c2c1c34 [pamiparib]
- inhibition at 10 mg [1]: ~80%
- Substrate of BCRP [2]: not a substrate
